The source of these data is patent US20200254065A1, “LONG-ACTING GLP-2 ANALOGS” (OPKO Biologics Ltd., priority 2019, published 2020).

Square brackets hold non-standard residues; d marks the D form. Peptide text beside a SMILES is read from it. Nle = CCCC[C@H](N)C(=O)O

A short description of series [1]: Pharmacokinetics of conjugated teduglutide in rats (commercial GLP2 ELISA kit). The settings on record: SD rats. Format: in vivo. Here is the method: Plasma samples were collected at pre-dose, 0.5, 2, 4, 8, 12, 24, 48, 72, 96, 168, 216, and 240 hours post dose. The levels of conjugates and free teduglutide were measured using commercial GLP2 ELISA kit.
Background: ELISA stands for enzyme-linked immunosorbent assay.

Series [2] relates to small intestine. In words: Intestine weight model in rats. It counts as in vivo, SD rats. A digest of the protocol: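 Rat intestinal growth model: conjugates given s.c. at 0.5–8.0 mg/kg peptide dose, as one injection, on days 1 and 3, or every 6 days; small intestine weighed on day 3, 6, 7, 10, 12 or 14. Histology (H&E, duodenum/jejunum/ileum) gave crypt+villus length. Both reported as % increase over vehicle.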

Series [3] can be described thus: Stability of GLP-2 analogues on incubation at 37° C. (appearance, O.D. reading, RP-HPLC). The settings on record: following 48 h incubation at 37° C. It counts as physicochemical. Here is the method:
The GLP-2 analogues were tested for stability via appearance, O.D. reading (A.280, and A.325) and RP-HPLC (purity, and peak area) following t=0, 1 day, and 48 h incubation at 37° C.

A short description of series [4]: PK after single SC injection in rats (LC-MS/MS). The conditions noted are these: rat, in vivo, 2 mg/kg. Here is the method:
To support the pharmacodynamic effects of V4 and Cys-FMS-V4 as detailed in Example 9, a pharmacokinetic analysis was also conducted. In this study (Study reference 15204), all animals were injected SC on Day 1 with 2 mg/kg peptide content of V4, Cys-FMS-V4 and Apraglutide. Blood samples were collected at 2, 8, 12, 24, 36, 48, 72, 96, 120 hours, and Days 7, 8, 9, 10, 11, 12, 13 and 14 post-dose administration and subsequently taken to LC-MS/MS analysis to determine plasma levels of each compound. For Cys-FMS-V4, a 2-analyte method was applied to determine the plasma concentrations of both the full conjugate and the V4 that was hydrolyzed from it (V4 hydrolyzed). Plasma concentrations (μM), as measured by using the LC-MS/MS method, of V4 peptide, Cys-FMS-V4, hydrolyzed V4, and Apraglutide are presented in FIG. 17.

Series [5] is described as follows: 2-compartmental pharmacokinetic modelling (MONOLIX 2018R2). The conditions noted are these: rat, in vivo. It counts as in vivo, rat. Here is the method: An in-depth PK modeling was performed to address the unexpected differences in half life, distribution, and pharmacological effect between V4, Cys-FMS-V4, and Apraglutide in the rat model. The analysis was performed with MONOLIX 2018R2 suite using a 2-compartmental pharmacokinetic model. The data used in this analysis was comprised from 3 independent experiments (data is presented as their average). The concentration versus time data of V4 that was formed from the Cys-FMS-V4 conjugate (the hydrolyzed peptide) was described appropriately using the values of the pharmacokinetic parameters of V4 peptide. Thus, the disposition of the hydrolyzed V4 was identical to that of the V4 peptide following the IV and SC administration.
The pharmacokinetics of Apraglutide in our studies was determined after SC administration. […] Based on this assumption, the values of volumes of distribution and clearance (Vpept, Vss, Vbeta, and CL) were calculated for Apraglutide (Table 13). The values of the other parameters of Apraglutide in Table 14 (the rate constants and the half-lives) are not dependent on this assumption.

The conditions of series [6]: Apraglutide, as previously reported, cited from earlier work.
For series [7], the target named is T1, GLP-2 receptor (Homo sapiens, UniProt O95838).
T1 sequence (O95838 1-553): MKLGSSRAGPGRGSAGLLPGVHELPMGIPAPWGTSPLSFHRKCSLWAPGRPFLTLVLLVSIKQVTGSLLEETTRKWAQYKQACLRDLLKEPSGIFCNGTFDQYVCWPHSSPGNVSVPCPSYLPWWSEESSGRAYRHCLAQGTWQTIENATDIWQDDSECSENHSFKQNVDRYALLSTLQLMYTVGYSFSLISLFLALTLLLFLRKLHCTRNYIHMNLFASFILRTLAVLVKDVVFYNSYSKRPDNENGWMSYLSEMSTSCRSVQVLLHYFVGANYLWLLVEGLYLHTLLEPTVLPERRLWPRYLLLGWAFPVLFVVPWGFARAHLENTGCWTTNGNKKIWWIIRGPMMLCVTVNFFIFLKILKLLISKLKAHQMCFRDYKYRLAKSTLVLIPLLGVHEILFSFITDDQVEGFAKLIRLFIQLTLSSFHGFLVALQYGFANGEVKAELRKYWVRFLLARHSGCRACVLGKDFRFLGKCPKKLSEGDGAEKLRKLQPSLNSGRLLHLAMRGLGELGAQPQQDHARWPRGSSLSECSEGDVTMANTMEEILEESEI
As to the kind of experiment: GLP-2 receptor Cell Based Assay (CBA). The conditions noted are these: EC50 (nM) Average, average of 3 independent CBA; different GLP-2R Assay Kit lot (Table 8).
Description: Evaluation of in vitro binding affinity of the different peptides was assessed by using Cell Based Assay (CBA) in the presence of escalating doses of the different peptides.

The conditions of series [8]: circulating native GLP-2; in humans; cited from earlier work.

As to `CC[C@H](C)[C@H](NC(=O)[C@H](Cc1ccccc1)NC(=O)[C@H](CC(=O)O)NC(=O)[C@H](CCCNC(=N)N)NC(=O)[C@H](C)NC(=O)[C@H](C)NC(=O)[C@H](CC(C)C)NC(=O)[C@H](CC(N)=O)NC(=O)[C@H](CC(=O)O)NC(=O)[C@H](CC(C)C)NC(=O)[C@@H](NC(=O)[C@@H](NC(=O)[C@H](CC(N)=O)NC(=O)[C@H](CCSC)NC(=O)[C@H](CCC(=O)O)NC(=O)[C@H](CC(=O)O)NC(=O)[C@H](CO)NC(=O)[C@H](Cc1ccccc1)NC(=O)[C@H](CO)NC(=O)CNC(=O)[C@H](CC(=O)O)NC(=O)CNC(=O)[C@@H](N)Cc1c[nH]cn1)[C@@H](C)O)[C@@H](C)CC)C(=O)N[C@@H](CC(N)=O)C(=O)N[C@@H](Cc1c[nH]c2ccccc12)C(=O)N[C@@H](CC(C)C)C(=O)N[C@H](C(=O)N[C@@H](CCC(N)=O)C(=O)N[C@H](C(=O)N[C@@H](CCCCN)C(=O)N[C@H](C(=O)N[C@H](C(=O)N[C@@H](CC(=O)O)C(=O)O)[C@@H](C)O)[C@@H](C)CC)[C@@H](C)O)[C@@H](C)CC` [GLP-2-Gly2, reference compound], in series [1] (single injection), the “Time up to which detectable in plasma” value was “up to 4 hours”. Also, the half-life in series [1] (rat, plasma, injected once at 2 mg/kg peptide dose, read-out: Half-Life (t1/2, hr) (converted)) is 0.9 h. Also, the “Increase of intestine weight over vehicle (%)” value is 25% in series [2] (2.5 mg/kg daily injections for five days (5 injections), average of five studies); 5% in series [2] (SD rats, SC on days 1 and 3 at 1 mg/kg peptide dose (2 injections), intestine weight on day 6, listed as GLP-2-Gly2 (Teduglutide), 1 mg/kg); “did not increase intestine weight compared to vehicle” in series [2] (SD rats, SC on days 1 and 3 at 1 mg/kg peptide dose (2 injections), intestine weight on day 6, listed as teduglutide, 1 mg/kg). Further, the “Average Intestine weight (gr)” value in series [2] (SD rats, SC on days 1 and 3 at 1 mg/kg peptide dose (2 injections), intestine weight on day 6) was 5.7 gr.

Usually AUC(0-inf) stands for the area under the concentration-time curve extrapolated to infinity. High values mean high exposure, low ones low exposure. A word on the AUC(0-t): it is exposure summed from dosing to a finite time, without extrapolation to infinity. As usually defined, the CL/F is clearance divided by bioavailability, as obtained after extravascular dosing. The term Cmax denotes the maximum level reached in the sampled fluid or tissue. In general, Tmax refers to the time at which the peak concentration occurs. In general, Vd/F refers to the apparent distribution volume after extravascular dosing. Broadly, the EC50 is the concentration giving half of the maximal effect. Regarding `CCCC[C@H](NC(=O)[C@H](CCC(=O)O)NC(=O)[C@H](CC(=O)O)NC(=O)[C@H](CO)NC(=O)[C@H](Cc1ccccc1)NC(=O)[C@H](CO)NC(=O)CNC(=O)[C@H](CC(=O)O)NC(=O)CNC(=O)[C@@H](N)Cc1cnc[nH]1)C(=O)N[C@H](Cc1ccccc1)C(=O)N[C@H](C(=O)N[C@H](C(=O)N[C@@H](CC(C)C)C(=O)N[C@@H](CC(=O)O)C(=O)N[C@@H](CC(C)C)C(=O)N[C@@H](CC(C)C)C(=O)N[C@@H](C)C(=O)N[C@@H](C)C(=O)N[C@@H](CCCNC(=N)N)C(=O)N[C@@H](CC(=O)O)C(=O)N[C@@H](Cc1ccccc1)C(=O)N[C@H](C(=O)N[C@@H](CC(N)=O)C(=O)N[C@@H](Cc1c[nH]c2ccccc12)C(=O)N[C@@H](CC(C)C)C(=O)N[C@H](C(=O)N[C@@H](CCC(N)=O)C(=O)N[C@H](C(=O)N[C@@H](CCCCN)C(=O)N[C@H](C(=O)N[C@H](C(=O)N[C@@H](CC(=O)O)C(N)=O)[C@@H](C)O)[C@@H](C)CC)[C@@H](C)O)[C@@H](C)CC)[C@@H](C)CC)[C@@H](C)CC)[C@@H](C)O` [Variant 1, reference compound] (H-HGDGSFSDE[Nle][dF]TILDLLAARDFINWLIQTKITD-NH2), in series [3], the Solubility via appearance result is “V1: opaque”. Besides, in series [3] (change of main peak), the “Stability via RP-HPLC main peak” value is recorded as “V1: −20%”. In series [4], the AUC(0-inf) stood at 29.4 µM·h, the AUC(0-t) amounted to 29.2 µM·h, the CL/F was 0.3 mL/min/kg and the concentration peaked (Cmax) at 1950 nM. Also, in series [4], the “Time post injection up to which detectable in blood” value is at most 120 h, the Tmax amounted to 8 h, the Vd/F worked out at 0.38 L/kg and the half-life is 14.5 h. In addition, in series [5], the k12 was determined as 0.0065 h⁻¹, the k21 was 0.0068 h⁻¹, the “ka—pept” value stood at 0.1661 h⁻¹ and the kpepte is 0.0855 h⁻¹. In series [5] (sc), this molecule displayed a CL of 0.222 mL/min/kg, a Vd of 2.12 L/kg, a Vpept of 0.156 L/kg and a Vss of 0.303 L/kg. Also, the half-life in series [5] (sc, t1/2 absorption) is 4.17 h. The half-life in series [5] (t1/2 alpha) is 7.5 h. Also, the half-life in series [5] (t1/2 beta) was 110 h. For the same molecule, in series [6] (assumed absolute SC bioavailability in rats), the Fpept was 0.74. Also, the “Absolute bioavailability following SC administration in rats” value in series [6] (assumed) was 74%. In addition, the EC50 in series [7] amounted to 1.7 nM.

On to “NH2-HADGSFSDEMNTILDNLAARDFINWLIQTKITD-COOH [native GLP-2]”, for which the “Biological (in vivo) half-life” value in series [8] is “approximately 7 minutes”.
